Assay type in all cases: biochemical
Test [1] deals with T1, HGFA (Homo sapiens, UniProt Q04756).
T1 construct: purchased R&D Systems 1514-SE-010
T1 sequence (Q04756 408-655 limits assumed): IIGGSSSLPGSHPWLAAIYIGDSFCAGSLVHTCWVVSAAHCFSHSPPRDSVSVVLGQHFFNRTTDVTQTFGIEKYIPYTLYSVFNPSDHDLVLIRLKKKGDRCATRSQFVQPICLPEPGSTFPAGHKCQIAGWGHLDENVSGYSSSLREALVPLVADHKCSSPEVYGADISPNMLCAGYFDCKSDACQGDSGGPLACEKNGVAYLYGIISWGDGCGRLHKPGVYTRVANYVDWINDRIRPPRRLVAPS
T1 sequence (Q04756 373-407 partner limits assumed): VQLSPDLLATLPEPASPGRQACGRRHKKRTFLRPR
The test can be described thus: Fluorogenic kinetic enzyme inhibitor assay, HGFA.

Test [2] has as its target T2, hepsin (Homo sapiens, UniProt P05981).
T2 construct: purchased R&D Systems 4776-SE-010
The test can be described thus: Fluorogenic kinetic enzyme inhibitor assay, hepsin.

Test [3] has as its target Thrombin (Homo sapiens, UniProt P00734). Put plainly: Fluorogenic assay, thrombin.
For test [4], the target named is T3, Factor Xa (Homo sapiens, UniProt P00742).
T3 construct: TMPRSS2; Matriptase; Hepsin; HGFA; Thrombin; Factor Xa
Put plainly: Fluorogenic assay, Factor Xa.

In test [5] the target is T4, matriptase (Homo sapiens, UniProt Q9Y5Y6).
T4 construct: purchased R&D Systems 3946-SEB-010
T4 sequence (Q9Y5Y6 615-855 limits assumed): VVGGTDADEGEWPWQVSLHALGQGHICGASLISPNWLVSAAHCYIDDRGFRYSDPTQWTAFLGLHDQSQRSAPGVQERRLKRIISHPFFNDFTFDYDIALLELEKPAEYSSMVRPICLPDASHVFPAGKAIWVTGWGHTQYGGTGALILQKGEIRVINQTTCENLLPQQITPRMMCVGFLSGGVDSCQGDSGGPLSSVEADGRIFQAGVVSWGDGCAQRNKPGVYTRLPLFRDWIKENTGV
Put plainly: Fluorogenic kinetic enzyme inhibitor assay, matriptase.

The target in test [6] is TMPRSS2 (Homo sapiens, UniProt O15393). The test can be described thus: Fluorogenic kinetic enzyme inhibitor assay, TMPRSS2. The arrangement: purchased Cusabio Technology CSB-YP023924HU. The conditions noted are these: read-out: TMPRSS2 IC50.

Structures are written as SMILES. Where two headings read alike, the source gives them in different places.

TMPRSS2, sequence (O15393 106-492 limits assumed): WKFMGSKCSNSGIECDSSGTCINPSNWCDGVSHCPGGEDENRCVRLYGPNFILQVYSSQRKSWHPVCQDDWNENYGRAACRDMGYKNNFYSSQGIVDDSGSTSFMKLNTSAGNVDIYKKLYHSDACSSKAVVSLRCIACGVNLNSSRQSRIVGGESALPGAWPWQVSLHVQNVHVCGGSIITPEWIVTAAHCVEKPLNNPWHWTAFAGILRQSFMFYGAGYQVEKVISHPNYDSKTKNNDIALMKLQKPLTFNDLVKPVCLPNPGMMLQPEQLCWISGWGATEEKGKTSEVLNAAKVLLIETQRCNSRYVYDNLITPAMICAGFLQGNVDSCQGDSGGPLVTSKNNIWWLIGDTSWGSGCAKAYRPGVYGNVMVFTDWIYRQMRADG
T2 sequence (P05981 163-417 limits assumed): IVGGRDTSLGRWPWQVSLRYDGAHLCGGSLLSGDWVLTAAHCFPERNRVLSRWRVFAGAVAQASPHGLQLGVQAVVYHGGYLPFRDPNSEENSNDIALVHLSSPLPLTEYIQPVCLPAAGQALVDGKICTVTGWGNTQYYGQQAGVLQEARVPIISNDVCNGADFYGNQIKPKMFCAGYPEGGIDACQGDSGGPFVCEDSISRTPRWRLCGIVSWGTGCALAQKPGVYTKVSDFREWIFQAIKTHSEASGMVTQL
T2 sequence (P05981 1-162 partner limits assumed): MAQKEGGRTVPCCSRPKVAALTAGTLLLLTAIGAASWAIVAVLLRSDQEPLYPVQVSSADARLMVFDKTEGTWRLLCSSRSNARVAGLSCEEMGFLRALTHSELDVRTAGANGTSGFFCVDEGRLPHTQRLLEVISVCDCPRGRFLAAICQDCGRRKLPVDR
T3 sequence (P00742 235-488 limits assumed): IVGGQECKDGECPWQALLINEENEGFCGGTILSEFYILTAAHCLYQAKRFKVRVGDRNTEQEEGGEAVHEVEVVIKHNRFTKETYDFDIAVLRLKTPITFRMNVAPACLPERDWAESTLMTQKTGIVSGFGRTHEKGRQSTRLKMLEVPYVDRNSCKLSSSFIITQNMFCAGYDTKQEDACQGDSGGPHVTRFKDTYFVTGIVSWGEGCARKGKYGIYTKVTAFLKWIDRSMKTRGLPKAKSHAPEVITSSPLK
T3 sequence (P00742 41-179 partner limits assumed): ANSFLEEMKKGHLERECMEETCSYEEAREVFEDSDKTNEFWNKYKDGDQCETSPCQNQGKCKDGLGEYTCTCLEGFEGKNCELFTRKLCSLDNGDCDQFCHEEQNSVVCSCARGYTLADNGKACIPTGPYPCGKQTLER

For `CC(=O)N[C@@H](Cc1cncn1COCc1ccccc1)C(=O)N[C@@H](CCCCNC(=N)N)C(=O)N[C@@H](CCC(C)C)C(=O)N[C@H](CCCNC(=N)N)C(=O)c1nc2ccccc2s1` [JH1143-1, N-[(R)-1-[(1,3-benzothiazol-2-yl)carbonyl]-4-guanidinobutyl](S)-2-[(S)-1-[(S)-2-acetylamino-3-{1-[(benzyloxy)methyl]-5-imidazolyl}propionylamino]-5-guanidinopentylcarbonylamino]-5-methylhexanamide], the half-maximal inhibitory concentration (IC50) in test [1] (read-out: HGFA IC50) stood at 543 nM; in test [2] (read-out: Hepsin IC50), 1.92 nM; in test [3] it was 4890 nM; in test [4] (read-out: Factor Xa IC50), 4800 nM; in test [5], 3.02 nM; in test [6], 7.54 nM.
For `N=C(N)NCCC[C@H](NC(=O)[C@H](Cc1ccccc1)NC(=O)OCC1c2ccccc2-c2ccccc21)C(=O)c1nc2ccccc2s1` [MF1133, (S)-1-[N-(S)-1-[(1,3-benzothiazol-2-yl)carbonyl]-4-guanidinobutylcarbamoyl]-2-phenylethyl(9H-fluoren-9-yl)methanecarbamate], the IC50 in test [1] (read-out: HGFA IC50) is 1930 nM; in test [2] (read-out: Hepsin IC50), 2680 nM; in test [3] it was above 20000 nM; in test [4] (read-out: Factor Xa IC50), 28.4 nM; in test [5] (read-out: Matriptase IC50) it was 2560 nM; in test [6], 19.7 nM.
`CSCC[C@H](NC(C)=O)C(=O)N[C@@H](CCC(N)=O)C(=O)N[C@@H](Cc1ccccc1)C(=O)N[C@@H](CCCNC(=N)N)C(=O)c1nc2ccccc2s1` [MM3130, N-[(S)-1-[N-(S)-1-[(1,3-benzothiazol-2-yl)carbonyl]-4-guanidinobutylcarbamoyl]-2-phenylethyl](S)-2-[(S)-2-acetylamino-4-(methylthio)butyrylamino] glutaramide]: the IC50 was 36.4 nM in test [1]; 0.134 nM in test [2]; above 20000 nM in test [3]; 342 nM in test [4] (read-out: Factor Xa IC50); 0.552 nM in test [5]; 0.142 nM in test [6].
Regarding `CC(=O)N[C@@H](CC(C)C)C(=O)N[C@@H](CCC(N)=O)C(=O)N[C@@H](Cc1ccccc1)C(=O)N[C@@H](CCCNC(=N)N)C(=O)c1nc2ccccc2s1` [MM3131, N-[(S)-1-[N-(S)-1-[(1,3-benzothiazol-2-yl)carbonyl]-4-guanidinobutylcarbamoyl]-2-phenylethyl](S)-2-[(S)-2-acetylamino-4-methylvalerylamino]glutaramide], the IC50 is 98.2 nM in test [1]; 0.247 nM in test [2]; above 20000 nM in test [3]; 219 nM in test [4]; 1.8 nM in test [5]; 0.031 nM in test [6].
Turning to `CCC(C)[C@H](NC(C)=O)C(=O)N[C@@H](CCC(N)=O)C(=O)N[C@@H](C)C(=O)N[C@@H](CCCNC(=N)N)C(=O)c1nc2ccccc2s1` (stereo partly drawn) [MM3178, N-[(S)-1-[N-(S)-1-[(1,3-benzothiazol-2-yl)carbonyl]-4-guanidinobutylcarbamoyl]ethyl](S)-2-[(2S)-2-acetylamino-3-methylvalerylamino]glutaramide], the IC50 in test [1] (read-out: HGFA IC50) is above 20000 nM; in test [2] (read-out: Hepsin IC50), 1.25 nM; in test [3], above 20000 nM; in test [4] (read-out: Factor Xa IC50), 170 nM; in test [5], 0.1 nM; in test [6], 0.227 nM.
With `CCC(C)[C@H](NC(C)=O)C(=O)N[C@@H](CCC(N)=O)C(=O)N[C@@H](Cc1c[nH]c2ccccc12)C(=O)N[C@@H](CCCNC(=N)N)C(=O)c1nc2ccccc2s1` (stereo partly drawn) [MM3187, N-[(S)-2-(3-indolyl)-1-[N-(S)-1-[(1,3-benzothiazol-2-yl)carbonyl]-4-guanidinobutylcarbamoyl]ethyl](S)-2-[(2S)-2-acetylamino-3-methylvalerylamino]glutaramide], the IC50 in test [1] (read-out: HGFA IC50) is 1450 nM; in test [2] (read-out: Hepsin IC50) it was 0.319 nM; in test [3], above 20000 nM; in test [4] (read-out: Factor Xa IC50) it was 129 nM; in test [5], 1.23 nM; in test [6], 2.19 nM.
`CC(=O)N[C@H](Cc1c[nH]c2ccccc12)C(=O)N[C@@H](Cc1ccccc1)C(=O)N[C@@H](CCCNC(=N)N)C(=O)c1nc2ccccc2s1` [PK-1-89A1, N-[(S)-1-[(1,3-benzothiazol-2-yl)carbonyl]-4-guanidinobutyl](S)-2-[(R)-2-acetylamino-3-(3-indolyl)propionylamino]-3-phenylpropionamide]: the IC50 in test [1] (read-out: HGFA IC50) is 27 nM; in test [2] (read-out: Hepsin IC50), 1.1 nM; in test [3] it was above 20000 nM; in test [4] (read-out: Factor Xa IC50) it was 98 nM; in test [5] (read-out: Matriptase IC50) it was 2.6 nM; in test [6], 0.156 nM.
For `CC(=O)N[C@H](Cc1c[nH]c2ccccc12)C(=O)N[C@@H](CC(C)C)C(=O)N[C@@H](CCCNC(=N)N)C(=O)c1nc2ccccc2s1` [PK-1-91, N-[(S)-1-[(1,3-benzothiazol-2-yl)carbonyl]-4-guanidinobutyl](S)-2-[(R)-2-acetylamino-3-(3-indolyl)propionylamino]-4-methylvaleramide], the IC50 in test [1] (read-out: HGFA IC50) worked out at 104 nM; in test [2] (read-out: Hepsin IC50), 1.6 nM; in test [3], 9370 nM; in test [4] (read-out: Factor Xa IC50) it was 1440 nM; in test [5] (read-out: Matriptase IC50), 39 nM; in test [6] it was 0.026 nM.
As to `CC(=O)N[C@@H](Cc1c[nH]c2ccccc12)C(=O)N[C@@H](Cc1ccccc1)C(=O)N[C@@H](CCCNC(=N)N)C(=O)c1nc2ccccc2s1` [PK-1-102A1, N-[(S)-1-[(1,3-benzothiazol-2-yl)carbonyl]-4-guanidinobutyl](S)-2-[(S)-2-acetylamino-3-(3-indolyl)propionylamino]-3-phenylpropionamide], the concentration for half-maximal inhibition (IC50) in test [1] (read-out: HGFA IC50) is 329 nM; in test [2] (read-out: Hepsin IC50), 7.6 nM; in test [3], above 20000 nM; in test [4] (read-out: Factor Xa IC50) it was 21.6 nM; in test [5] (read-out: Matriptase IC50) it was 5.7 nM; in test [6] it was 0.388 nM.
Regarding `CC(=O)N[C@@H](Cc1c[nH]c2ccccc12)C(=O)N[C@@H](CC(C)C)C(=O)N[C@@H](CCCNC(=N)N)C(=O)c1nc2ccccc2s1` [PK-1-104, N-[(S)-1-[(1,3-benzothiazol-2-yl)carbonyl]-4-guanidinobutyl](S)-2-[(S)-2-acetylamino-3-(3-indolyl)propionylamino]-4-methylvaleramide], the IC50 in test [1] (read-out: HGFA IC50) came out at 76.3 nM; in test [2] (read-out: Hepsin IC50), 0.93 nM; in test [3], 17000 nM; in test [4] (read-out: Factor Xa IC50), 890 nM; in test [5] (read-out: Matriptase IC50), 25.7 nM; in test [6], 1.3 nM.
On to `CSCC[C@@H]1NC(=O)[C@@H](NC(C)=O)CC(=O)NCCCC[C@@H](C(=O)N[C@@H](CCCNC(=N)N)C(=O)c2nc3ccccc3s2)NC1=O` [VD3173, N-[(S)-1-[(1,3-benzothiazol-2-yl)carbonyl]-4-guanidinobutyl]-(3S,6S,14S)-6-acetylamino-3-[2-(methylthio)ethyl]-2,5,8-trioxo-1,4,9-triaza-14-cyclotetradecanecarboxamide], for which the IC50 in test [1] (30 min incubation, Boc-QLR-AMC at Km, read-out: HGFA IC50) worked out at 3240 nM; in test [2] (30 min incubation, Boc-QAR-AMC at Km, read-out: Hepsin IC50), 5.9 nM; in test [3], 18500 nM; in test [4] (read-out: Factor Xa IC50), 1390 nM; in test [5] (read-out: Matriptase IC50) it was 1 nM; in test [6] it was 0.401 nM.
`CC(=O)N[C@H]1Cc2ccc(cc2)OC/C=C\C[C@@H](C(=O)N[C@@H](CCCNC(=N)N)C(=O)c2nc3ccccc3s2)NC(=O)[C@H](CC(C)C)NC1=O` [VD4010, N-[(S)-1-[(1,3-benzothiazol-2-yl)carbonyl]-4-guanidinobutyl]-(4Z,7S,10S,13S)-13-acetylamino-10-isobutyl-9,12-dioxo-2-oxa-8,11-diazabicyclo[13.2.2]nonadeca-1(17),4,15,18-tetraene-7-carboxamide]: the IC50 in test [1] (read-out: HGFA IC50) was 53 nM; in test [2] (read-out: Hepsin IC50), 0.17 nM; in test [3], above 20000 nM; in test [4] (read-out: Factor Xa IC50) it was 122 nM; in test [5], 3.4 nM; in test [6], 1.21 nM.
With `CC(=O)N[C@H]1C/C=C\COc2ccc(cc2)C[C@@H](C(=O)N[C@@H](CCCNC(=N)N)C(=O)c2nc3ccccc3s2)NC(=O)[C@H](CC(C)C)NC1=O` [VD4051, N-[(S)-1-[(1,3-benzothiazol-2-yl)carbonyl]-4-guanidinobutyl]-(4Z,7S,10S,13S)-7-acetylamino-10-isobutyl-8,11-dioxo-2-oxa-9,12-diazabicyclo[13.2.2]nonadeca-1(17),4,15,18-tetraene-13-carboxamide], the 50% inhibitory concentration (IC50) in test [1] is above 20000 nM; in test [2], 20 nM; in test [3] it was above 20000 nM; in test [4] (read-out: Factor Xa IC50) it was 8810 nM; in test [5], 14 nM; in test [6], 14.2 nM.

For the origin of these results see US20250171495A1, “MUTLI-TARGETED SERINE PROTEASE INHIBITORS FOR TREATMENT OF CANCER AND VIRAL INFECTION” (Washington University, priority 2023, published 2025).
